Measured values reported in patent EP2072513A1, “A cyano piperidinyl-phenil-oxazolidinone and use thereof” (Ferrer Internacional, S.A., priority 2007, dated 2009).
Values after ≈ are worked out from the molar mass of the structure shown. Where two headings read alike, the source gives them in different places.

Columns and labels:
[1] = test system: E. faecalis ATCC 29212 53; assay: MIC, standard micro dilution method (NCCLS M7-A5); type: cell-based; conditions: Enterococcus faecalis, ATCC29212
[2] = test system: S. aureus clinical strain cfr methylase 432; assay: MIC, standard micro dilution method (NCCLS M7-A5); type: cell-based; conditions: Staphylococcus aureus; S. aureus clinical strain cfr methylase 432 (linezolid-resistant)
[3] = test system: S. pneumoniae ATCC 49619 PR 215; assay: MIC, standard micro dilution method (NCCLS M7-A5); type: cell-based; conditions: Streptococcus pneumoniae, ATCC49619
[4] = test system: S. aureus ATCC 43300 MR 214; assay: MIC, standard micro dilution method (NCCLS M7-A5); type: cell-based; conditions: Staphylococcus aureus, ATCC43300
E. faecium ATCC 10541 13 = assay: MIC, standard micro dilution method (NCCLS M7-A5); type: cell-based; conditions: Enterococcus faecium, ATCC10541
[5] = test system: Moraxella catarrhalis HCl-78 259/339; assay: MIC, standard micro dilution method (NCCLS M7-A5); type: cell-based; conditions: HCL78259/339
[6] = test system: B. fragilis ATCC 25285 A12; assay: MIC, standard micro dilution method (NCCLS M7-A5); type: cell-based; conditions: Bacteroides fragilis, ATCC25285; B. fragilis ATCC 25285 A12, anaerobic, Brucella Blood medium
[7] = test system: S. aureus ATCC 25923 MS 319; assay: MIC, standard micro dilution method (NCCLS M7-A5); type: cell-based; conditions: Staphylococcus aureus, ATCC25923
[8] = test system: S. epidermidis ATCC 12228 MR 11; assay: MIC, standard micro dilution method (NCCLS M7-A5); type: cell-based; conditions: Staphylococcus epidermidis, ATCC12228
human MAO-A = target: T1, human MAO-A (Homo sapiens, UniProt P21397); assay: In vitro MAO-A enzymatic activity (kynuramine substrate, fluorescence); type: biochemical; conditions: membranes from SF9 cells, kynuramine 30 µM, 37° 40 min
T1 construct: purchased Gentest, BD, USA; host or cells: SF9 insect cells (membranes)
T1 sequence (P21397 1-527): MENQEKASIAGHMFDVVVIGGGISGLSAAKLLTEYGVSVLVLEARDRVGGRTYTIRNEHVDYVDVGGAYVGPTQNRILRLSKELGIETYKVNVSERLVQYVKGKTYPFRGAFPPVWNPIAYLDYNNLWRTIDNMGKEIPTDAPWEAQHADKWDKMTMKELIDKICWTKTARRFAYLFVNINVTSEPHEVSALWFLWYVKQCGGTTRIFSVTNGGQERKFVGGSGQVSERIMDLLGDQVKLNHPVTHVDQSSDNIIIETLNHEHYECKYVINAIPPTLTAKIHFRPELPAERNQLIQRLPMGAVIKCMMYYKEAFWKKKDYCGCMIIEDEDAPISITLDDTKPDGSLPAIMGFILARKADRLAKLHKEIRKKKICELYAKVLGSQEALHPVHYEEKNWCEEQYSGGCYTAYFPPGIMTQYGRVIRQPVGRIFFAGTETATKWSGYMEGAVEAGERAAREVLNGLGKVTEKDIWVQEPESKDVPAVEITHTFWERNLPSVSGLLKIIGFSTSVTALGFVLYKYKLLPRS
Method: (§1) MAO-A and MAO-B enzymatic activities were measured using membranes obtained from SF9 cells expressing either human MAO-A or human MAO-B (Gentest, BD, USA). Assays were done in blank 96-well micro titter plates using kynuramine as substrate and measuring the formation of 4-hydroxyquinoline by fluorescence at 340 nm/465 nm. Briefly, membranes with MAO-A (0.006 mg/mL protein) and MAO-B (0.015 mg/mL protein) were incubated with kynuramine, 30 µM, at 37° for 40 min in the presence of the compound in a final volume of 200 µL. Reactions were stopped by adding NaOH 2N and the reaction product, 4-hydroxyquinoline, was determined by fluorometry using a Tecan Ultra reader.

human MAO-B = target: T2, human MAO-B (Homo sapiens, UniProt P27338); assay: In vitro MAO-B enzymatic activity (kynuramine substrate, fluorescence); type: biochemical; conditions: membranes from SF9 cells, kynuramine 30 µM, 37° 40 min
T2 construct: purchased Gentest, BD, USA; host or cells: SF9 insect cells (membranes)
T2 sequence (P27338 1-520): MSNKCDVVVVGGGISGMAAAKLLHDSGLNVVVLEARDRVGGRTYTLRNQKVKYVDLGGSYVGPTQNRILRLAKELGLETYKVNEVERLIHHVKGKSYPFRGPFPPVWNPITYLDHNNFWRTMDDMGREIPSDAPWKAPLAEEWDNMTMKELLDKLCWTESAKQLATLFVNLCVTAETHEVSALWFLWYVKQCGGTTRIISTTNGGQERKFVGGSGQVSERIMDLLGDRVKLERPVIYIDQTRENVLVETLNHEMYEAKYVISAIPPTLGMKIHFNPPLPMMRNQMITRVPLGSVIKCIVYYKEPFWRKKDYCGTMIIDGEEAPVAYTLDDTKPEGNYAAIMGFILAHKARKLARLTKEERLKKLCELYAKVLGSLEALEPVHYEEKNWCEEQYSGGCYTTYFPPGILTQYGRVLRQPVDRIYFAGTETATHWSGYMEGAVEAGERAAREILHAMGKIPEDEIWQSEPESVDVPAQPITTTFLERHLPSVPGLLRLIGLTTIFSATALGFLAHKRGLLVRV
Method: as §1

[9] = test system: Moxarella, Pasteurella and Bacteroides spp.; conditions: cited from earlier work
[10] = Equilibrium solubility of polymorphic forms in solvent systems; type: physicochemical
Method: Table 1: Equilibrium solubilities of polymorphic form B. Solubility studies were also performed for polymorphic form A. In Table 2 appear the data obtained. Table 2: Equilibrium solubilities of polymorphic form A.

[11] = Suspension equilibration experiments (relative stability of polymorphic forms); type: physicochemical; conditions: at room temperature (17-30 °C)
Description: However, a mixture of polymorphic form A and B in water slowly converted into pure polymorphic form B as well. Similarly, a suspension containing a mixture of polymorphic forms B and C in ethanol converted into polymorphic form B after some time.

Row | Structure (SMILES) | MIC [1] [µg/mL] | MIC [2] [µg/mL] | MIC [3] [µg/mL] | MIC [4] [µg/mL] | MIC (E. faecium ATCC 10541 13) [µg/mL] | MIC [5] [µg/mL] | MIC [6] [µg/mL] | MIC [7] [µg/mL] | MIC [8] [µg/mL] | Ki (human MAO-A) [µM] | Ki (human MAO-B) [µM] | MICs [9] [µg/mL] | Solubility ([10]; Ethanol) [µg/mL] | Solubility ([10]; Ethyl acetate) [µg/mL] | Solubility ([10]; Water (Fluka 95305), pH 8.9) [µg/mL] | Solubility ([10]; water, pH 8.7, water, thermodynamic from solid, Water (Fluka 95305), pH 8.7, read-out: Solubility) [µg/mL] | Solubility ([10]; water, pH 8.9, water, thermodynamic from solid, Water (Fluka 95305), pH 8.9, read-out: Solubility) [µg/mL] | relative stability of the polymorphic forms [11]
1 | CC(=O)NC[C@H]1CN(c2ccc(N3CCC(C#N)CC3)c(F)c2)C(=O)O1 [Compound (Ia), (S)-N-{3-[4-(4-cyano-piperidin-1-yl)-3-fluoro-phenyl]-2-oxo-oxazolidin-5-ylmethyl}-acetamide] | 1 (≈ 2.77 µM) | 2 (≈ 5.55 µM) | 0.5 (≈ 1.39 µM) | 1 (≈ 2.77 µM) | 0.5 (≈ 1.39 µM) | 1 (≈ 2.77 µM) | 1 (≈ 2.77 µM) | 1 (≈ 2.77 µM) | 1 (≈ 2.77 µM) | 1.05 | 2.45 |  |  |  |  |  |  | 
2 | CC(=O)NC[C@H]1CN(c2ccc(N3CCOCC3)c(F)c2)C(=O)O1 [Linezolid, N-[[(5S)-3-[3-fluoro-4-(4-morpholinyl)phenyl]-2-oxo-5-oxazolidinyl]methyl]acetamide, reference compound] | 0.5 (≈ 1.48 µM) | 16 to 32 (≈ 47.4 to 94.9 µM) | 1 (≈ 2.96 µM) | 1 (≈ 2.96 µM) | 1 (≈ 2.96 µM) | 2 (≈ 5.93 µM) | 2 (≈ 5.93 µM) | 1 (≈ 2.96 µM) | 1 (≈ 2.96 µM) | 6.96 |  | 2 to 8 |  |  |  |  |  | 
3 | CC(=O)NC[C@H]1CN(c2ccc(N3CCC(C#N)CC3)c(F)c2)C(=O)O1 [polymorphic form A, (S)-N-{3-[4-(4-cyano-piperidin-1-yl)-3-fluoro-phenyl]-2-oxo-oxazolidin-5-ylmethyl}-acetamide] |  |  |  |  |  |  |  |  |  |  |  |  | 6300 to 7300 | 11800 to 15400 | 390 (≈ 1080 µM) | 400 (≈ 1110 µM) |  | 
4 | CC(=O)NC[C@H]1CN(c2ccc(N3CCC(C#N)CC3)c(F)c2)C(=O)O1 [polymorphic form B, (S)-N-{3-[4-(4-cyano-piperidin-1-yl)-3-fluoro-phenyl]-2-oxo-oxazolidin-5-ylmethyl}-acetamide] |  |  |  |  |  |  |  |  |  |  |  |  | 2600 (≈ 7210 µM) | 2900 (≈ 8050 µM) |  |  | 240 (≈ 666 µM) | the most stable one
